Measurements reported in the supplement of paper PMC11451515.

Experiments:
Conditions in all cases: 48 h
SEM cells [1] = assay: cell viability relative to DMSO control; higher = less cytotoxic
In short: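 Viability is a per-plate percentage relative to DMSO wells, with cell-free wells as background. CellTiter-Glo One luminescence was read after 48 h at 37°C on 1536-well plates (5 μl) of NOMO1 or SEM (500 cells/well) or P12-Ichikawa (1000 cells/well) leukemia cells. The cells had been adapted for at least four passages in each medium and pin-dosed with library compounds in DMSO from 47 μM to 0.79 nM in 11 threefold steps.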

NOMO1 = assay: AUC of viability dose-response curve (% viability x log10 dose units); higher = less sensitive
In short: (§1)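 In 1536-well plates, leukemia cells adapted to each medium (500 or 1000 cells/well) were exposed for 48 h at 37°C to library compounds in DMSO across 11 threefold doses, 47 μM down to 0.79 nM. Viability was read by CellTiter-Glo One luminescence and normalised per plate to DMSO and cell-free wells. A four-parameter log-logistic fit over log10 doses was integrated by trapezoidal rule. This yielded the area under the curve, with over-full-viability curves scaled and quality-control failures dropped.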

P12-Ichikawa = assay: as above
In short: as §1

SEM cells [2] = assay: as above
In short: as §1

[3] = RPMI 5 mM glucose + 10% dialyzed FBS
[4] = HPLM + 10% dialyzed FBS, 0.000781 µM
[5] = HPLM + 10% dialyzed FBS, 0.00234 µM
[6] = HPLM + 10% dialyzed FBS, 0.00702 µM
[7] = HPLM + 10% dialyzed FBS, 0.0211 µM
[8] = HPLM + 10% dialyzed FBS, 0.0632 µM
[9] = HPLM + 10% dialyzed FBS, 0.19 µM
[10] = HPLM + 10% dialyzed FBS, 0.569 µM
[11] = HPLM + 10% dialyzed FBS, 1.71 µM
[12] = HPLM + 10% dialyzed FBS, 5.12 µM
[13] = HPLM + 10% dialyzed FBS, 15.4 µM
[14] = HPLM + 10% dialyzed FBS, 46.1 µM

| SMILES | cell viability (SEM cells [1]; RPMI 5 mM glucose + 10% FBS, 0.000781 µM) | cell viability (SEM cells [1]; RPMI 5 mM glucose + 10% FBS, 0.00234 µM) | cell viability (SEM cells [1]; RPMI 5 mM glucose + 10% FBS, 0.00702 µM) | cell viability (SEM cells [1]; RPMI 5 mM glucose + 10% FBS, 0.0211 µM) | cell viability (SEM cells [1]; RPMI 5 mM glucose + 10% FBS, 0.0632 µM) | cell viability (SEM cells [1]; RPMI 5 mM glucose + 10% FBS, 0.19 µM) | cell viability (SEM cells [1]; RPMI 5 mM glucose + 10% FBS, 0.569 µM) | cell viability (SEM cells [1]; RPMI 5 mM glucose + 10% FBS, 1.71 µM) | cell viability (SEM cells [1]; RPMI 5 mM glucose + 10% FBS, 5.12 µM) | cell viability (SEM cells [1]; RPMI 5 mM glucose + 10% FBS, 15.4 µM) | cell viability (SEM cells [1]; RPMI 5 mM glucose + 10% FBS, 46.1 µM) | AUC of viability dose-response curve (NOMO1; HPLM + 10% dialyzed FBS) | AUC of viability dose-response curve (NOMO1; RPMI 5 mM glucose + 10% FBS) | AUC of viability dose-response curve (NOMO1; [3]) | AUC of viability dose-response curve (P12-Ichikawa; HPLM + 10% dialyzed FBS) | AUC of viability dose-response curve (P12-Ichikawa; RPMI 5 mM glucose + 10% FBS) | AUC of viability dose-response curve (P12-Ichikawa; [3]) | AUC of viability dose-response curve (SEM cells [2]; HPLM + 10% dialyzed FBS) | AUC of viability dose-response curve (SEM cells [2]; RPMI 5 mM glucose + 10% FBS) | AUC of viability dose-response curve (SEM cells [2]; [3]) | cell viability (SEM cells [1]; [4]) | cell viability (SEM cells [1]; [5]) | cell viability (SEM cells [1]; [6]) | cell viability (SEM cells [1]; [7]) | cell viability (SEM cells [1]; [8]) | cell viability (SEM cells [1]; [9]) | cell viability (SEM cells [1]; [10]) | cell viability (SEM cells [1]; [11]) | cell viability (SEM cells [1]; [12]) | cell viability (SEM cells [1]; [13]) | cell viability (SEM cells [1]; [14]) |
| --- | --- | --- | --- | --- | --- | --- | --- | --- | --- | --- | --- | --- | --- | --- | --- | --- | --- | --- | --- | --- | --- | --- | --- | --- | --- | --- | --- | --- | --- | --- | --- |
| CC[C@@]1(O)C(=O)OC\C2=C1\C=C3/N(CC4=CC5=C(C=CC(=C5CN(C)C)O)N=C34)C2=O | 101% | 107% | 87.2% | 107% | 68.6% | 22.4% | 11.5% | 12.2% | 6.44% | 4.3% | 4.41% | 306 | 312 | 324 | 225 | 217 | 215 | 245 | 226 | 230 | – | – | – | – | – | – | – | – | – | – | – |
| N/C1=N/C(=O)C/2=C(NC[C@@H](CNC3=CC=C(C=C3)C(=O)N[C@@H](CCC([O-])=O)C([O-])=O)N2C=O)\N1 | – | – | – | – | – | – | – | – | – | – | – | 319 | 307 | 321 | – | – | – | 446 | 465 | 437 | 103% | 114% | 120% | 115% | 131% | 114% | 117% | 116% | 119% | 123% | 136% |
| CN(C)CCc1ccc(O)cc1 | – | – | – | – | – | – | – | – | – | – | – | 454 | 460 | 461 | 448 | 446 | 450 | 471 | 455 | 471 | 114% | 120% | 134% | 130% | 137% | 135% | 116% | 140% | 113% | 135% | 110% |
| CN1CCN(CC1)C2=C3OCN(C)N4\C=C(C(O)=O)/C(=O)C(=C34)C=C2F | – | – | – | – | – | – | – | – | – | – | – | 454 | 450 | 465 | 459 | 459 | 465 | 471 | 466 | 434 | 66.2% | 116% | 120% | 124% | 115% | 115% | 117% | 116% | 102% | 105% | 82% |
